The results in this text go back to ChEMBL document CHEMBL1128384, “Cardioselective antiischemic ATP-sensitive potassium channel openers. 2. Structure-activity studies on benzopyranylcyanoguanidines: modification of the benzopyran ring” (J Med Chem, 1995).

What all share (assay type): functional
For test [1], the species on record is Rattus norvegicus. The test can be described thus: Vasorelaxant potency was assessed by measurement of inhibition of methoxamine-contracted rat aorta.
Test [2] is filed under the species Rattus norvegicus. In words: In vitro anti-ischemic potency was determined by measurement of concentration necessary for increase in time to contracture by 25% in the globally ischemic rat hearts.
Test [3] is described as follows: Ratio of anti-ischemic potency and vasorelaxant potency in rat.
Test [4] is filed under the species Rattus norvegicus. In words: Antiischemic potency was determined by increase in time to contracture at a concentration of 10 uM in the globally ischemic rat hearts.

For `CC1(C)Oc2ccc(N)cc2[C@@H](/N=C(\NC#N)Nc2ccccc2)[C@@H]1O` (relative stereo), the IC50 (as a rule, the point on the concentration scale where inhibition reaches its midpoint) in the test filed under Rattus norvegicus [1] came to 59.6 µM. In the test listed under Rattus norvegicus [2], the Increase was found to be 0%.

In the test filed under Rattus norvegicus [1], `CC1(C)Oc2ccc(C(F)(F)F)cc2[C@@H](/N=C(\NC#N)Nc2ccccc2)[C@@H]1O` (relative stereo) returned an IC50 of 9.2 µM. Further, in the test listed under Rattus norvegicus [2], it took 10 µM to reach the 25% level (EC25). Also, in test [3], the Ratio is listed as 0.5.

Compound `CC(=O)O[C@H]1[C@H](NC(=O)Nc2ccccc2)c2cc(C#N)ccc2OC1(C)C` showed an IC50 in the test filed under Rattus norvegicus [1] of 4.4 µM. This compound also returned an Increase in the test listed under Rattus norvegicus [4] of 3%.

The compound `CC1(C)Nc2ccc(C#N)cc2[C@@H](/N=C(\NC#N)Nc2ccccc2)[C@@H]1O` (relative stereo) came in with an Increase in the test filed under Rattus norvegicus [4] of 0%.

Consider `CC1(C)C[C@H](NC(=O)Nc2ccccc2)c2cc(C#N)ccc2O1`, for which the midpoint of inhibition in the test listed under Rattus norvegicus [1], the IC50, lay at 1.8 µM. Also, in the test listed under Rattus norvegicus [2], the 25% effect level (EC25) was put at 5.3 µM. The Ratio in test [3] was 2.9.

In the case of `CC1(C)c2ccc([N+](=O)[O-])cc2[C@@H](/N=C(\NC#N)Nc2ccccc2)[C@@H]1O` (relative stereo), the EC25 (commonly the concentration needed for an effect of 25%) in the test filed under Rattus norvegicus [2] turned out to be 10.7 µM. Moreover, in test [3], the Ratio stood at 18.8.

As to `N#Cc1ccc2c(c1)[C@@H](NC(=O)Nc1ccccc1)[C@H](O)CO2`, the Increase in the test filed under Rattus norvegicus [4] was determined as 6%.

In the test filed under Rattus norvegicus [1], `CC1(C)C[C@H](NC(=O)Nc2ccccc2)c2cc(C#N)ccc21` displayed an IC50 of 1.3 µM. This compound registered an EC25 in the test filed under Rattus norvegicus [2] of 9.4 µM. Moreover, the Ratio in test [3] was determined as 7.2.

With `N#CN/C(=N\[C@@H]1c2cc(C#N)ccc2OC[C@H]1O)Nc1ccccc1` (relative stereo), half-maximal inhibition in the test filed under Rattus norvegicus [1] (IC50) required 194 µM. The Increase in the test listed under Rattus norvegicus [4] is given as 0%.

Turning to `CC(=O)c1ccc2c(c1)[C@@H](/N=C(\NC#N)Nc1ccccc1)[C@H](O)C(C)(C)O2` (relative stereo), in the test listed under Rattus norvegicus [1], the IC50 was 4 µM. Besides, in the test listed under Rattus norvegicus [2], the EC25 was found to be 8.5 µM. Also, the Ratio in test [3] turned out to be 2.1.

In turn, `CC1(C)C=C(/N=C(\NC#N)Nc2ccccc2)c2cc(C#N)ccc2O1` displayed an IC50 in the test filed under Rattus norvegicus [1] of 6.9 µM. Moreover, the Increase in the test listed under Rattus norvegicus [4] is given as 0%.

`CC(=O)O[C@H]1[C@H](/N=C(\NC#N)Nc2ccccc2)c2cc(C#N)ccc2OC1(C)C` (relative stereo) showed an IC50 in the test listed under Rattus norvegicus [1] of 2.6 µM. Further, it took 6 µM to reach the 25% level in the test filed under Rattus norvegicus [2] (EC25). For the same compound, the Ratio in test [3] was 2.3.

`CC(=O)c1ccc2c(c1)[C@@H](NC(=O)Nc1ccccc1)[C@H](O)C(C)(C)O2` registered an IC50 in the test filed under Rattus norvegicus [1] of 1.2 µM. Moreover, it took 4.5 µM to reach the 25% level in the test listed under Rattus norvegicus [2] (EC25). Also, the Ratio in test [3] stood at 3.8.

`CC1(C)Oc2ccc(C(F)(F)F)cc2[C@@H](NC(=O)Nc2ccccc2)[C@@H]1O` showed an IC50 in the test listed under Rattus norvegicus [1] of 1.1 µM. This compound also yielded an EC25 in the test listed under Rattus norvegicus [2] of 2.7 µM. The Ratio in test [3] is 2.5.

As for `CC1(C)Oc2ccc(C#N)cc2[C@@H](NC(=O)Nc2ccccc2)[C@H]1O`, half-maximal inhibition in the test filed under Rattus norvegicus [1] (IC50) required 6.2 µM. The compound further returned an EC25 in the test listed under Rattus norvegicus [2] of 103 µM. The Ratio in test [3] is on record as 16.5.

Consider `CC1(C)C[C@H](/N=C(\NC#N)Nc2ccccc2)c2cc(C#N)ccc2O1`, for which 14 µM corresponded to half-maximal inhibition in the test listed under Rattus norvegicus [1] (IC50). The Increase in the test filed under Rattus norvegicus [4] turned out to be 0%.

On to `CC1(C)Oc2cc(-c3ncco3)c(-c3ncco3)cc2[C@@H](NC(=O)Nc2ccccc2)[C@@H]1O`, for which, in the test listed under Rattus norvegicus [1], it took 1.4 µM to reach half-maximal inhibition (IC50). Also, in the test filed under Rattus norvegicus [2], the EC25 came to 13 µM. Also, the Ratio in test [3] is listed as 9.3.

In the test filed under Rattus norvegicus [1], `CC1(C)c2ccc([N+](=O)[O-])cc2[C@@H](NC(=O)Nc2ccccc2)[C@@H]1O` came in with an IC50 of 0.18 µM. Also, the EC25 in the test listed under Rattus norvegicus [2] came to 6.5 µM. The Ratio in test [3] is listed as 36.1.

Regarding `CC1(C)Oc2ccc(C#N)cc2[C@@H](/N=C(\NC#N)Nc2ccccc2)[C@H]1O` (relative stereo), in the test listed under Rattus norvegicus [4], the Increase worked out at 9%.

Consider `CC1(C)C=C(NC(=O)Nc2ccccc2)c2cc(C#N)ccc2O1`, for which, in the test filed under Rattus norvegicus [1], the IC50 came out at 17 µM. For the same compound, the Increase in the test filed under Rattus norvegicus [4] is 7%.

In turn, `CC1(C)Oc2cc(-c3ncco3)c(-c3ncco3)cc2[C@@H](/N=C(\NC#N)Nc2ccccc2)[C@@H]1O` (relative stereo) showed an IC50 in the test filed under Rattus norvegicus [1] of 8.8 µM. In the test filed under Rattus norvegicus [2], this compound came in with an Increase of 6%.

In the test filed under Rattus norvegicus [2], `CC1(C)Oc2ccc(C#N)cc2[C@@H](NC(=O)Nc2ccccc2)[C@@H]1O` registered an EC25 of 5.1 µM. That is a single-digit micromolar value.

Compound `CC1(C)C[C@H](/N=C(\NC#N)Nc2ccccc2)c2cc(C#N)ccc21` registered an IC50 in the test listed under Rattus norvegicus [1] of 2.6 µM. Moreover, the EC25 in the test listed under Rattus norvegicus [2] was determined as 22 µM. In test [3], the Ratio was 8.5.

In the case of `CC1(C)Oc2ccc(C#N)cc2[C@@H](/N=C(\NC#N)Nc2ccccc2)[C@@H]1O` (relative stereo), the IC50 in the test filed under Rattus norvegicus [1] was found to be 1.4 µM. The 25% effect concentration (EC25) in the test listed under Rattus norvegicus [2] amounted to 11 µM. In addition, in test [3], the Ratio came to 7.9.

Compound `CC1(C)Oc2ccc(C#N)cc2[C@@H](N2CCCC2=O)[C@@H]1O` [CROMAKALIM] yielded an EC25 in the test filed under Rattus norvegicus [2] of 8.9 µM. Also, in test [3], the Ratio turned out to be 278.1.
